The values that follow come from ChEMBL document CHEMBL1127927, “Cycloheptimidazole based angiotensin II receptor antagonists. 4,5,6,7-tetrahydro-8-carboxymethylidene cycloheptimidazoles” (Bioorg Med Chem Lett, 1994).

The assay has as its target T1, Angiotensin II receptor (AT-1) type-1 (Rattus norvegicus, UniProt P29089+P25095).
T1 sequence (P29089 whole entry): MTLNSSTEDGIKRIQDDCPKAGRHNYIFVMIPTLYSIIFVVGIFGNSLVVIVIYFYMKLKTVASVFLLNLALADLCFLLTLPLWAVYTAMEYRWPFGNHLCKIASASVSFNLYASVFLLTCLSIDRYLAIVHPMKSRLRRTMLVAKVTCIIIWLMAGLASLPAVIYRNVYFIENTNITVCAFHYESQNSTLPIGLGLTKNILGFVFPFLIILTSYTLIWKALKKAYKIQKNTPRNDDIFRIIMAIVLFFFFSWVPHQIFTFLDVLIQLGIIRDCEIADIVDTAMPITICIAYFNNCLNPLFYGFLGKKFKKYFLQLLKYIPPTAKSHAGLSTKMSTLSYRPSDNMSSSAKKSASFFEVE
T1 sequence (P25095 whole entry): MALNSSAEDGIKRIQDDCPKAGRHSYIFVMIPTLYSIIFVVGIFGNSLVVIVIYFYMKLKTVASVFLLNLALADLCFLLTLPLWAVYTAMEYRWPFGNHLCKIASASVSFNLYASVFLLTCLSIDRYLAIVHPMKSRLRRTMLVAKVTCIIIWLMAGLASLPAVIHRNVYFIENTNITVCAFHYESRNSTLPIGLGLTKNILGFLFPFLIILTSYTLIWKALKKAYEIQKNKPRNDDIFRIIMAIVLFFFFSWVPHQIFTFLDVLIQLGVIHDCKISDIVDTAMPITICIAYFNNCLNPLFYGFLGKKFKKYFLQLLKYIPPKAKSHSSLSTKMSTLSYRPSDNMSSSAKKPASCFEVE
In words: Inhibition of binding of [125I]- Sar,Ileu-angiotensin to Angiotensin II receptor, type 1 in the radioligand binding assay using rat liver membrane preparations.

A word on the IC50: it is the concentration that inhibits the measured activity by half.

Consider `CCc1nc2c(n1Cc1ccc(-c3ccccc3-c3nn[nH]n3)cc1)/C(=C/C(=O)O)CCCC2`, for which the concentration for half-maximal inhibition (IC50) is recorded as 5.45 nM.
